Drawing on patent US8501981B2, “CXCR2 inhibitors” (SANOFI, priority 2006, dated 2013), this text covers IC50 for 20 compounds.

Structures are written as SMILES.

Chain of human CXCR2 (P25025 whole entry): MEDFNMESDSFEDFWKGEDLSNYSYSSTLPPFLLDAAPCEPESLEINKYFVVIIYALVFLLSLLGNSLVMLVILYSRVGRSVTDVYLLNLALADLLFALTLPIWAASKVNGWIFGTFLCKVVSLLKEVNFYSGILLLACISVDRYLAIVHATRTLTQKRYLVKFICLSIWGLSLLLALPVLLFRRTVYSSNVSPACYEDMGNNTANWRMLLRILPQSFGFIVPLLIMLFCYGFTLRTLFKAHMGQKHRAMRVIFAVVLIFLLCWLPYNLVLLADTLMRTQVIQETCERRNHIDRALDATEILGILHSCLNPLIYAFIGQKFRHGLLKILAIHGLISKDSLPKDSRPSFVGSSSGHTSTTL

For this assay, the target named is human CXCR2 (Homo sapiens (Human), UniProt P25025). Put plainly: Determination of CXCR2 inhibition: Calcium Fluorescence Assay (FLIPR). Format: cell-based. The settings on record: chemokine IL-8; CHO-K1 cells stably transfected with human CXCR2 and Gα16. From the text:
Determination of CXCR2 inhibition: Calcium Fluorescence Assay (FLIPR)
The assay is based on the detection of intracellular calcium changes detected by the selective, calcium-chelating dye, Fluo-4 (Molecular Probes). A large fluorescence intensity increase is observed upon calcium association with Fluo-4. […] By co-expressing the CXCR2 receptor and the promiscuous Gα16 protein, activation of this chemokine receptor is directed into this phospholipase C cascade resulting in intracellular calcium mobilization.
The CHO—K1 cells stably transfected with human CXCR2 and the promiscuous Gα16 protein were maintained in a log phase of growth at 37° C. and 5% CO2 in the following media: Iscove's, 10% FBS, 1× Penicillin-Streptomycin, 400 μg/mL g418 and 350 μg/mL Zeocin. Approximately 24-48 hours prior to the assay, 20,000-30,000 cells/well were plated onto a 96-well black/clear bottomed assay plate (Becton Dickinson) with a well volume of 180 μl. For dye-loading the culture medium was carefully removed and replaced by 100 μl/well dye solution (4 μM Fluo-4 in 135 mM NaCl, 5 mM KCl, 1 mM magnesium sulphate, 5 mM glucose, 20 mM hepes, 2.5 mM probenecid; pH 7.4). Cells were incubated for 1 h at 37° C., and then washed 3× with buffer. After washing 90 μl buffer/well were left. Increasing concentrations of compound was added in 45 μl buffer (4× concentrated) followed by 10 min incubation at 37° C. Then the chemokine (10-100 nM) was applied in 45 μl buffer (4× concentrated) and the measurement performed for 2 min. The IC50 value of a compound was determined by calculation of % inhibition of total calcium response to the chemokine.
As usually defined, the IC50 is the concentration that gives 50% inhibition. Regarding `O=C(NC1(C(=O)O)CCC1)c1ccc2ccccc2c1OCCC1CCCCC1` [Example 97, 1-{[1-(2-Cyclohexyl-ethoxy)-naphthalene-2-carbonyl]-amino}-cyclobutanecarboxylic acid], the concentration for half-maximal inhibition (IC50) was < 10 µM. Take `CC(CCc1ccccc1)Oc1c(C(=O)NC(C)(C)C(=O)O)ccc2ccccc12` (centres unmarked) [Example 140, 2-Methyl-2-{[1-(1-methyl-3-phenyl-propoxy)-naphthalene-2-carbonyl]-amino}-propionic acid]: the half-maximal inhibitory concentration (IC50) is < 10 µM. For `C[C@@H](NC(=O)c1ccc2ccccc2c1OCCc1ccc(F)cc1)C(=O)O` [Example 130, (R)-2-({1-[2-(4-Fluoro-phenyl)-ethoxy]-naphthalene-2-carbonyl}-amino)-propionic acid] the value was < 10 µM; for `O=C(NC1(C(=O)O)CCC1)c1ccc2ccccc2c1OCCOc1ccccc1` [Example 100], < 10 µM; for `CC(C)(NC(=O)c1sc2ccccc2c1OCCOc1ccccc1)C(=O)O` [Example 46, 2-Methyl-2-{[3-(2-phenoxy-ethoxy)-benzo[b]thiophene-2-carbonyl]-amino}-propionic acid], 1.76 µM. For `CC(C)(NC(=O)c1cc(F)c2ccccc2c1OCCCc1ccccc1)C(=O)O` [Example 18, 2-{[4-Fluoro-1-(3-phenyl-propoxy)-naphthalene-2-carbonyl]-amino}-2-methyl-propionic acid] the value was < 10 µM; for `CC(C)CC(C)(NC(=O)c1ccc2ccccc2c1OCCOc1ccccc1)C(=O)O` (centres unmarked) [Example 55, 2,4-Dimethyl-2-{[1-(2-phenoxy-ethoxy)-naphthalene-2-carbonyl]-amino}-pentanoic acid], 2.56 µM. For `CC(C)(NC(=O)c1ccc2ccccc2c1OCCOc1ccc(F)c(Cl)c1)C(=O)O` [Example 73, 2-({1-[2-(3-Chloro-4-fluoro-phenoxy)-ethoxy]-naphthalene-2-carbonyl}-amino)-2-methyl-propionic acid] the value was 1.25 µM. In the case of `CC(C)(NC(=O)c1ccc2ccccc2c1OCCCc1ccc(Cl)cc1)C(=O)O` [Example 106, 2-({1-[3-(4-Chloro-phenyl)-propoxy]-naphthalene-2-carbonyl}-amino)-2-methyl-propionic acid], the IC50 is < 10 µM. The result for `O=C(NC1(C(=O)O)CCC1)c1ccc2ccccc2c1OCCCc1ccccc1` [Example 99, 1-{[1-(3-Phenyl-propoxy)-naphthalene-2-carbonyl]-amino}-cyclobutanecarboxylic acid] reads < 10 µM; that for `CC(C)(NC(=O)c1cc(F)c2ccccc2c1OCCc1ccccc1)C(=O)O` [Example 17, 2-[(4-Fluoro-1-phenethyloxy-naphthalene-2-carbonyl)-amino]-2-methyl-propionic acid], < 10 µM. Consider `CC(CCc1ccccc1)Oc1c(C(=O)NC2(C(=O)O)CCCC2)ccc2ccccc12` (centres unmarked) [Example 52, 1-{[1-(1-Methyl-3-phenyl-propoxy)-naphthalene-2-carbonyl]-amino}-cyclopentanecarboxylic acid], for which the half-maximal inhibitory concentration (IC50) came out at 0.92 µM.

In the case of `CC(C)(NC(=O)c1cc(F)c2ccccc2c1OCCOc1ccccc1)C(=O)O` [Example 20, 2-{[4-Fluoro-1-(2-phenoxy-ethoxy)-naphthalene-2-carbonyl]-amino}-2-methyl-propionic acid], the concentration for half-maximal inhibition (IC50) was < 10 µM. The result for `CCCCC(CC)(NC(=O)c1ccc2ccccc2c1OCCCC1CCCCC1)C(=O)O` (centres unmarked) [Example 119, 2-{[1-(3-Cyclohexyl-propoxy)-naphthalene-2-carbonyl]-amino}-2-ethyl-hexanoic acid] reads < 10 µM; that for `CC(C)(NC(=O)c1ccc2ccccc2c1OCCc1ccccc1)C(=O)O` [Example 126, 2-Methyl-2-[(1-phenethyloxy-naphthalene-2-carbonyl)-amino]-propionic acid], < 10 µM. Regarding `CCCCC(CC)(NC(=O)c1ccc2ccccc2c1OCCCc1ccccc1)C(=O)O` (centres unmarked) [Example 116, 2-Ethyl-2-{[1-(3-phenyl-propoxy)-naphthalene-2-carbonyl]-amino}-hexanoic acid], the half-inhibitory concentration (IC50) was < 10 µM. For `CC(C)(NC(=O)c1ccc2ccccc2c1C#CCOc1ccccc1)C(=O)O` [Example 165, 2-Methyl-2-{[1-(3-phenoxy-prop-1-ynyl)-naphthalene-2-carbonyl]-amino}-propionic acid] the value was < 10 µM; for `CCCCC(CC)(NC(=O)c1ccc2ccccc2c1OCCOc1ccccc1)C(=O)O` (centres unmarked) [Example 117, 2-Ethyl-2-{[1-(2-phenoxy-ethoxy)-naphthalene-2-carbonyl]-amino}-hexanoic acid], < 10 µM. The result for `CC(C)(NC(=O)c1ccc2ccccc2c1C#CCCCc1ccccc1)C(=O)O` [Example 166, 2-Methyl-2-{[1-(5-phenyl-pent-1-ynyl)-naphthalene-2-carbonyl]-amino}-propionic acid] reads 1.67 µM. For `O=C(NC1(C(=O)O)CCC1)c1ccc2ccccc2c1OCCOc1ccc(F)cc1` [Example 105, 1-({1-[2-(4-Fluoro-phenoxy)-ethoxy]-naphthalene-2-carbonyl}-amino)-cyclobutanecarboxylic acid] the value was 3.23 µM.
